{"source": "patent EP0496332A1", "about": "“Alpha-aminoquinolinoyl-[3]-penicillines, process for their preparation and their use as antibacterial agents” (ARZNEIMITTELWERK DRESDEN GmbH, priority 1991, dated 1992)", "test_in_all_cases": "In-vitro test, inhibitory concentration by dilution series", "assay_type_in_all_cases": "cell-based", "key": {"[1]": {"test_system": "Staphylococcus aureus SG 511", "settings": "SG511; II = Staphylococcus aureus SG 511; step = concentration with no visible growth; read-out: Hemmkonzentration nach Verdünnung (Verdünnungsreihe) (converted)", "from_the_text": "(§1) Die antibiotische Wirksamkeit erfindungsgemäßer Verbindungen wurde in der üblichen Weise durch Ermittlung der Hemmkonzentrationen nach Verdünnung ermittelt.\n(§2) Die erhaltenen Ergebnisse sind in der nachstehenden Tabelle zusammengefaßt."}, "Citrobacter freudii": {"test_system": "Citrobacter freudii", "settings": "XIV = Citrobacter freudii, Laborstämme; step = concentration with no visible growth; read-out: Hemmkonzentration nach Verdünnung (Verdünnungsreihe) (converted)", "from_the_text": "as §1, §2"}, "[2]": {"test_system": "Staphylococcus epidermidis", "settings": "X = Staphylococcus epidermidis, Laborstämme; step = concentration with no visible growth; read-out: Hemmkonzentration nach Verdünnung (Verdünnungsreihe) (converted)", "from_the_text": "as §1, §2"}, "Enterokokken": {"test_system": "Enterokokken", "settings": "XI = Enterokokken, Laborstämme; step = concentration with no visible growth; read-out: Hemmkonzentration nach Verdünnung (Verdünnungsreihe) (converted)", "from_the_text": "as §1, §2"}, "[3]": {"test_system": "Pseudomonas aeruginosa NCTC 10701", "settings": "NCTC10701; IV = Pseudomonas aeruginosa NCTC 10701; step = concentration with no visible growth; read-out: Hemmkonzentration nach Verdünnung (Verdünnungsreihe) (converted)", "from_the_text": "as §1, §2"}, "Proteus vulgaris OX 19": {"test_system": "Proteus vulgaris OX 19", "settings": "OX19; III = Proteus vulgaris OX 19; step = concentration with no visible growth; read-out: Hemmkonzentration nach Verdünnung (Verdünnungsreihe) (converted)", "from_the_text": "as §1, §2"}, "Enterobacter cloacae": {"test_system": "Enterobacter cloacae", "settings": "XIII = Enterobacter cloacae, Laborstämme; step = concentration with no visible growth; read-out: Hemmkonzentration nach Verdünnung (Verdünnungsreihe) (converted)", "from_the_text": "as §1, §2"}, "[4]": {"test_system": "Pseudomonas aeruginosa SG 137", "settings": "SG137; V = Pseudomonas aeruginosa SG 137; step = concentration with no visible growth; read-out: Hemmkonzentration nach Verdünnung (Verdünnungsreihe) (converted)", "from_the_text": "as §1, §2"}, "Bacillus subtilis SG 119": {"test_system": "Bacillus subtilis SG 119", "settings": "SG119; I = Bacillus subtilis SG 119; step = concentration with no visible growth; read-out: Hemmkonzentration nach Verdünnung (Verdünnungsreihe) (converted)", "from_the_text": "as §1, §2"}, "Staphylococcus aureus": {"test_system": "Staphylococcus aureus", "settings": "IX = Staphylococcus aureus, Laborstämme; step = concentration with no visible growth; read-out: Hemmkonzentration nach Verdünnung (Verdünnungsreihe) (converted)", "from_the_text": "as §1, §2"}, "[5]": {"test_system": "Salmonella gallinarium ATCC 9184", "settings": "ATCC9184; VI = Salmonella gallinarium ATCC 9184; step = concentration with no visible growth; read-out: Hemmkonzentration nach Verdünnung (Verdünnungsreihe) (converted)", "from_the_text": "as §1, §2"}, "Escherichia coli": {"test_system": "Escherichia coli", "settings": "XII = Escherichia coli, Laborstämme; step = concentration with no visible growth; read-out: Hemmkonzentration nach Verdünnung (Verdünnungsreihe) (converted)", "from_the_text": "as §1, §2"}, "[6]": {"test_system": "Serratia marcescens SG 621", "settings": "SG621; VIII = Serratia marcescens SG 621; step = concentration with no visible growth; read-out: Hemmkonzentration nach Verdünnung (Verdünnungsreihe) (converted)", "from_the_text": "as §1, §2"}, "[7]": {"test_system": "Klebsiella pneumoniae SG 117", "settings": "SG117; VII = Klebsiella pneumoniae SG 117; step = concentration with no visible growth; read-out: Hemmkonzentration nach Verdünnung (Verdünnungsreihe) (converted)", "from_the_text": "as §1, §2"}}, "data": [{"molecule": "CCc1cc2c(OC(=O)OCC(C)C)c(C(=O)N[C@@H](C(=O)N[C@@H]3C(=O)N4[C@@H]3SC(C)(C)[C@@H]4C(=O)O)c3ccccc3)cnc2cc1COC", "note": "[Beisp. 18, 6-[D-(-)-α-([4'-Isobutoxycarbonyloxy-6'-ethyl-7'-methoxymethylen-chinolinoyl-3']-carboxamido)-α-phenylacetamido]-penicillansäure-Natriumsalz]", "values": [{"measurement": "MIC", "setting": "[1]", "result": 1.56, "unit": "µM"}, {"measurement": "MIC", "setting": "Citrobacter freudii", "result": 6.25, "unit": "µM"}, {"measurement": "MIC", "setting": "[2]", "result": 6.25, "unit": "µM"}, {"measurement": "MIC", "setting": "Enterokokken", "result": 25, "unit": "µM"}, {"measurement": "MIC", "setting": "[3]", "result": 0.78, "unit": "µM"}, {"measurement": "MIC", "setting": "Proteus vulgaris OX 19", "result": 0.39, "unit": "µM"}, {"measurement": "MIC", "setting": "Enterobacter cloacae", "result": 6.25, "unit": "µM"}, {"measurement": "MIC", "setting": "[4]", "result": 6.25, "unit": "µM"}, {"measurement": "MIC", "setting": "Bacillus subtilis SG 119", "result": 1.56, "unit": "µM"}, {"measurement": "MIC", "setting": "Staphylococcus aureus", "result": 0.39, "unit": "µM"}, {"measurement": "MIC", "setting": "[5]", "result": 3.12, "unit": "µM"}, {"measurement": "MIC", "setting": "Escherichia coli", "result": 1.56, "unit": "µM"}, {"measurement": "MIC", "setting": "[6]", "result": 3.12, "unit": "µM"}, {"measurement": "MIC", "setting": "[7]", "result": 0.78, "unit": "µM"}]}, {"molecule": "CCc1cc2c(OC(=O)OCC(C)C)c(C(=O)N[C@@H](C(=O)N[C@@H]3C(=O)N4[C@@H]3SC(C)(C)[C@@H]4C(=O)O)c3ccccc3)cnc2cc1COc1ccc(C(C)=O)cc1", "note": "[Beisp. 15, 6-[D-(-)-α-([4'-Isobutoxycarbonyloxy-6'-ethyl-7'-(4''-acetyl)-phenoxymethylen-chinolinoyl-3']-carboxamido)-α-phenylacetamido]-penicillansäure-Natriumsalz]", "values": [{"measurement": "MIC", "setting": "[1]", "result": 0.78, "unit": "µM"}, {"measurement": "MIC", "setting": "Citrobacter freudii", "result": 3.12, "unit": "µM"}, {"measurement": "MIC", "setting": "[2]", "result": 3.12, "unit": "µM"}, {"measurement": "MIC", "setting": "Enterokokken", "result": 6.25, "unit": "µM"}, {"measurement": "MIC", "setting": "[3]", "result": 3.12, "unit": "µM"}, {"measurement": "MIC", "setting": "Proteus vulgaris OX 19", "result": 0.39, "unit": "µM"}, {"measurement": "MIC", "setting": "Enterobacter cloacae", "result": 3.12, "unit": "µM"}, {"measurement": "MIC", "setting": "[4]", "result": 3.12, "unit": "µM"}, {"measurement": "MIC", "setting": "Bacillus subtilis SG 119", "result": 3.12, "unit": "µM"}, {"measurement": "MIC", "setting": "Staphylococcus aureus", "result": 6.25, "unit": "µM"}, {"measurement": "MIC", "setting": "[5]", "result": 1.56, "unit": "µM"}, {"measurement": "MIC", "setting": "Escherichia coli", "result": 1.56, "unit": "µM"}, {"measurement": "MIC", "setting": "[6]", "result": 0.78, "unit": "µM"}, {"measurement": "MIC", "setting": "[7]", "result": 0.78, "unit": "µM"}]}, {"molecule": "CCOC(=O)Oc1c(C(=O)N[C@@H](C(=O)N[C@@H]2C(=O)N3[C@@H]2SC(C)(C)[C@@H]3C(=O)O)c2ccccc2)cnc2cc(COc3ccc(Br)cc3)c(CC)cc12", "note": "[Beisp. 2, 6-[D-(-)-α-([4'-Ethoxycarbonyloxy-6'-ethyl-7'-(4''-brom)-phenoxymethylen-chinolinoyl-3']-carboxamido)-α-phenylacetamido]-penicillansäure-Natriumsalz]", "values": [{"measurement": "MIC", "setting": "[1]", "result": 1.56, "unit": "µM"}, {"measurement": "MIC", "setting": "Citrobacter freudii", "result": 6.25, "unit": "µM"}, {"measurement": "MIC", "setting": "[2]", "result": 12.5, "unit": "µM"}, {"measurement": "MIC", "setting": "Enterokokken", "result": 12.5, "unit": "µM"}, {"measurement": "MIC", "setting": "[3]", "result": 6.25, "unit": "µM"}, {"measurement": "MIC", "setting": "Proteus vulgaris OX 19", "result": 0.78, "unit": "µM"}, {"measurement": "MIC", "setting": "Enterobacter cloacae", "result": 6.25, "unit": "µM"}, {"measurement": "MIC", "setting": "[4]", "result": 12.5, "unit": "µM"}, {"measurement": "MIC", "setting": "Bacillus subtilis SG 119", "result": 3.12, "unit": "µM"}, {"measurement": "MIC", "setting": "Staphylococcus aureus", "result": 25, "unit": "µM"}, {"measurement": "MIC", "setting": "[5]", "result": 1.56, "unit": "µM"}, {"measurement": "MIC", "setting": "Escherichia coli", "result": 1.56, "unit": "µM"}, {"measurement": "MIC", "setting": "[6]", "result": 1.56, "unit": "µM"}, {"measurement": "MIC", "setting": "[7]", "result": 0.78, "unit": "µM"}]}, {"molecule": "CCc1cc2c(OC(=O)OCC(C)C)c(C(=O)N[C@@H](C(=O)N[C@@H]3C(=O)N4[C@@H]3SC(C)(C)[C@@H]4C(=O)O)c3ccccc3)cnc2cc1COC(C)CC", "note": "(stereo partly drawn) [Beisp. 22, 6-[D-(-)-α-([4'-Isobutoxycarbonyloxy-6'-ethyl-7'-s-butoxymethylen-chinolinoyl-3']-carboxamido)-α-phenylacetamido]-penicillansäure-Natriumsalz]", "values": [{"measurement": "MIC", "setting": "[1]", "result": 1.56, "unit": "µM"}, {"measurement": "MIC", "setting": "Citrobacter freudii", "result": 3.12, "unit": "µM"}, {"measurement": "MIC", "setting": "[2]", "result": 12.5, "unit": "µM"}, {"measurement": "MIC", "setting": "Enterokokken", "result": 12.5, "unit": "µM"}, {"measurement": "MIC", "setting": "[3]", "result": 0.78, "unit": "µM"}, {"measurement": "MIC", "setting": "Proteus vulgaris OX 19", "result": 0.39, "unit": "µM"}, {"measurement": "MIC", "setting": "Enterobacter cloacae", "result": 6.25, "unit": "µM"}, {"measurement": "MIC", "setting": "[4]", "result": 12.5, "unit": "µM"}, {"measurement": "MIC", "setting": "Bacillus subtilis SG 119", "result": 1.56, "unit": "µM"}, {"measurement": "MIC", "setting": "Staphylococcus aureus", "result": 25, "unit": "µM"}, {"measurement": "MIC", "setting": "[5]", "result": 1.56, "unit": "µM"}, {"measurement": "MIC", "setting": "Escherichia coli", "result": 1.56, "unit": "µM"}, {"measurement": "MIC", "setting": "[6]", "result": 1.56, "unit": "µM"}, {"measurement": "MIC", "setting": "[7]", "result": 0.78, "unit": "µM"}]}, {"molecule": "CCCOCc1cc2ncc(C(=O)N[C@@H](C(=O)N[C@@H]3C(=O)N4[C@@H]3SC(C)(C)[C@@H]4C(=O)O)c3ccccc3)c(OC(=O)OCC)c2cc1CC", "note": "[Beisp. 5, 6-[D-(-)-α-([4'-Ethoxycarbonyloxy-6'-ethyl-7'-n-propoxymethylen-chinolinoyl-3']-carboxamido)-α-phenylacetamido]-penicillansäure-Natriumsalz]", "values": [{"measurement": "MIC", "setting": "[1]", "result": 1.56, "unit": "µM"}, {"measurement": "MIC", "setting": "Citrobacter freudii", "result": 6.25, "unit": "µM"}, {"measurement": "MIC", "setting": "[2]", "result": 3.12, "unit": "µM"}, {"measurement": "MIC", "setting": "Enterokokken", "result": 6.25, "unit": "µM"}, {"measurement": "MIC", "setting": "[3]", "result": 0.78, "unit": "µM"}, {"measurement": "MIC", "setting": "Proteus vulgaris OX 19", "result": 0.78, "unit": "µM"}, {"measurement": "MIC", "setting": "Enterobacter cloacae", "result": 6.25, "unit": "µM"}, {"measurement": "MIC", "setting": "[4]", "result": 3.12, "unit": "µM"}, {"measurement": "MIC", "setting": "Bacillus subtilis SG 119", "result": 0.78, "unit": "µM"}, {"measurement": "MIC", "setting": "Staphylococcus aureus", "result": 6.25, "unit": "µM"}, {"measurement": "MIC", "setting": "[5]", "result": 3.12, "unit": "µM"}, {"measurement": "MIC", "setting": "Escherichia coli", "result": 1.56, "unit": "µM"}, {"measurement": "MIC", "setting": "[6]", "result": 1.56, "unit": "µM"}, {"measurement": "MIC", "setting": "[7]", "result": 3.12, "unit": "µM"}]}]}
